This is an account of results in US9365574B2, “Soluble guanylate cyclase activators” (Merck Sharp & Dohme Corp., priority 2010, dated 2016).

This data set addresses T1, sGC (Homo sapiens, UniProt Q02108+Q02153).
T1 construct: expressed in transfected cells; host or cells: CHO-K1 (clone #7, CHO-K1/sGC)
T1 sequence (Q02108 1-690): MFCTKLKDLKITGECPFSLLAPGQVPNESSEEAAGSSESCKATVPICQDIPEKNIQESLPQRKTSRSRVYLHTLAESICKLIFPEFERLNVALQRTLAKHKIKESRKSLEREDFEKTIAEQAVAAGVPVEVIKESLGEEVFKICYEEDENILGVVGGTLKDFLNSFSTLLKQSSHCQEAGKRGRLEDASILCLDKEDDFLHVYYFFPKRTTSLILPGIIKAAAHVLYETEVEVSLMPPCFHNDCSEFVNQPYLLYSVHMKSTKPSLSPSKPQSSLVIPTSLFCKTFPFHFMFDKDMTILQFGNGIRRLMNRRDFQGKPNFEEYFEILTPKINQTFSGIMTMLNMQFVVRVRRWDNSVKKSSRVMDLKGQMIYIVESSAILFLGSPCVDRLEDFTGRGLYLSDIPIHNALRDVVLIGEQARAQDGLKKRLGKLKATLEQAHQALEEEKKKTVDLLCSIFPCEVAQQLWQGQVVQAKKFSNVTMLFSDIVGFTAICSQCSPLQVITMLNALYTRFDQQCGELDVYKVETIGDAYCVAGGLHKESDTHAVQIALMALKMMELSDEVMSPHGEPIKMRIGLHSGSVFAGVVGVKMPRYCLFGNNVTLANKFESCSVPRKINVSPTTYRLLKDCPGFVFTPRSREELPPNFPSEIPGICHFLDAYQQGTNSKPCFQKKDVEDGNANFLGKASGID
T1 sequence (Q02153 1-619): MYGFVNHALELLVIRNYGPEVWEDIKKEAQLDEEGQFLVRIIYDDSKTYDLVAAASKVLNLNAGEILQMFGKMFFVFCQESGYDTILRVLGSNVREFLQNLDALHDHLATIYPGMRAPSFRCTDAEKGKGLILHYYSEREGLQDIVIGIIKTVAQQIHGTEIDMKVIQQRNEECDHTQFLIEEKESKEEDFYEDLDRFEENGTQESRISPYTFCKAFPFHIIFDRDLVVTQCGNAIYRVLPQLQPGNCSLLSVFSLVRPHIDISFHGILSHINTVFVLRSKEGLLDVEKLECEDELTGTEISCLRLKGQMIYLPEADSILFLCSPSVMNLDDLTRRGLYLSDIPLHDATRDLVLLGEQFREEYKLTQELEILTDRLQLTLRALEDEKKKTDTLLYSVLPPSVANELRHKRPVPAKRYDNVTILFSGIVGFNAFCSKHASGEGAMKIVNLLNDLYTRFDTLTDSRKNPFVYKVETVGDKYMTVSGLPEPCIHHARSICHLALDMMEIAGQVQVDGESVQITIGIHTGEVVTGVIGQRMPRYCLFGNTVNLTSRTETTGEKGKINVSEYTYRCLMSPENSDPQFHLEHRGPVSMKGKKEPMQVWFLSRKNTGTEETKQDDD
Kind of data set: Cell-based sGC Functional Assay (CASA Assay), cGMP generation in CHO-K1/sGC cells. Conditions: without ODQ incubation; for EC50: read-out: inflection points (IP). From the text:
Cell-based sGC Functional Assay (CASA Assay)
sGC is a heme-containing enzyme that converts GTP to secondary messenger cGMP. Increases in cGMP levels affect several physiological processes including vasorelaxation through multiple downstream pathways. […] Heme-dependent activators (HDAs) preferentially activate sGC containing a ferrous heme group. To determine the effect of sGC activators on enzyme activity, the CASA assay was developed to monitor the generation of cGMP in a cell line that stably expresses the heterodimeric sGC protein.
A CHO-K1 cell line stably expressing the sGC a up heterodimer was generated using a standard transfection protocol. CHO-K1 cells were transfected with plasmids pIREShyghsGCα1 and pIRESneo-hsGCβ1 simultaneously using FUGENE reagent. Clones that stably express both subunits were selected with hygromycin and neomycin for weeks. Clone #7 was chosen for the assay and was designated CHO-K1/sGC. CHO-K1/sGC cells were maintained in F-K12 medium containing 10% heat-inactivated Fetal Bovine Serum (FBS), 100 μg/mL penicillin/streptomycin, 0.5 mg/mL hygromycin and 0.25 mg/mL G418. On the day of the assay, cells were harvested in EBSS Assay Buffer (EAB) containing 5 mM MgCl2, 10 mM HEPES (4-(2-hydroxyethyppiperazine-1-ethanesulfonic acid) and 0.05% BSA (bovine serum albumin) and cell density was adjusted to 2×10^6/mL with EAB. IBMX (3-isobutyl-1-methylxanthin, 0.5 mM) was added to inhibit degradation of cGMP. Compounds were diluted from DMSO stock solutions and added to the assay at a final DMSO concentration of 1%. Cells were incubated with compounds in the presence and absence of 10 μM of 1H-(1,2,4)oxadiazolo(4,3-a) quinoxalin-1-one (ODQ) for 1 hr at 37° C. At the end of the incubation period, the reaction was terminated and the cells were lysed. The level of intracellular cGMP was determined using an HTRF-based assay kit (CisBio, 62GM2PEC), which detects the displacement of a fluorescence labeled cGMP from its specific antibody. The amount of cGMP was plotted against compound concentration in PRISM software and the IP and maximum fold induction over DMSO control were derived from the plot.

For the compound `CC1(c2ccccc2)C(=O)Nc2nc(-n3nc(CCC(F)(F)C(F)(F)F)c4cc(Cl)ccc43)nc(N)c21` (stereo not drawn) [Example 2, 4-Amino-2-[5-Chloro-3-(3,3,4,4,4-Pentafluorobutyl)-1H-Indazol-1-yl]-5-Methyl-5-Phenyl-5,7-Dihydro-6H-Pyrrolo[2,3-D]Pyrimidin-6-One], the “Maximum fold induction over DMSO control” value was 133 and the EC50 amounted to 114 nM.
For `CC1(c2ccccc2)C(=O)Nc2nc(-n3nc(CCC(F)(F)C(F)(F)F)c4cc(F)ccc43)nc(N)c21` (stereo not drawn) [Example 26, 4-amino-2-[5-fluoro-3-(3,3,4,4,4-pentafluorobutyl)-1H-indazol-1-yl]-5-methyl-5-phenyl-5,7-dihydro-6H-pyrrolo[2,3-d]pyrimidin-6-one], in that order: 156 and 212 nM.
Taken in the same sequence, the figures for `CC1(c2ccccc2)C(=O)Nc2nc(-c3nn(CCC(F)(F)C(F)(F)F)c4cc(Cl)ccc34)nc(N)c21` (stereo not drawn) [Example 58, 4-Amino-2-[6-Chloro-1-(3,3,4,4,4-Pentafluorobutyl)-1H-Indazol-3-yl]-5-Methyl-5-Phenyl-5,7-Dihydro-6H-Pyrrolo[2,3-D]Pyrimidin-6-One] were 225 and 50 nM.
On to `CC1(c2ccccc2)C(=O)Nc2nc(-c3nn(CCC(F)(F)C(F)(F)F)c4cc(F)ccc34)nc(N)c21` (stereo not drawn) [Example 70, 4-amino-2-[6-fluoro-1-(3,3,4,4,4-pentafluorobutyl)-1H-indazol-3-yl]-5-methyl-5-phenyl-5,7-dihydro-6H-pyrrolo[2,3-d]pyrimidin-6-one], for which the “Maximum fold induction over DMSO control” value came out at 126 and the EC50 stood at 46 nM.
As for `CC1(c2ccc(F)cc2)C(=O)Nc2nc(-c3nc(CCC(F)(F)C(F)(F)F)n4cc(Cl)ccc34)nc(N)c21` (stereo not drawn) [Example 105, 4-Amino-2-[6-Chloro-3-(3,3,4,4,4-Pentafluorobutyl)Imidazo[1,5-A]Pyridin-1-yl]-5-(4-Fluorophenyl)-5-Methyl-5,7-Dihydro-6H-Pyrrolo[2,3-D]Pyrimidin-6-One], the “Maximum fold induction over DMSO control” value was 150 and the EC50 is 258 nM.
Taken in the same sequence, the figures for `CC1(c2ccccc2)C(=O)Nc2nc(-c3nc(CCC(F)(F)C(F)(F)F)n4cc(Cl)ccc34)nc(N)c21` (stereo not drawn) [Example 136, 4-amino-2-[6-chloro-3-(3,3,4,4,4-pentafluorobutyl)imidazo[1,5-a]pyridin-1-yl]-5-methyl-5-phenyl-5,7-dihydro-6H-pyrrolo[2,3-d]pyrimidin-6-one] were 52 and 139 nM.
